Target: Trypanosoma evansi protein-tyrosine phosphatase (PTPase)
Conditions: competitive; substrate pNPP; 25 mM HEPES pH 7.3, 10% glycerol, no EDTA; 37 °C

## [O]=[V]([OH])([OH])[OH] [sodium orthovanadate]
  Ki: 200 µg/mL

— PMC6927228 (Journal of Experimental Pharmacology, 2019)
